Results reported in patent US10669242B2 (priority 2016, dated 2020).

Molecular target: T1, recombinant glucosyltransferase domain of C. difficile Toxin B/TcdB (Clostridioides difficile, UniProt P18177)
T1 construct: 6-His (C); purchased R&D Systems 6246-GT
Experiment: biochemical

T1 sequence (P18177 1-543): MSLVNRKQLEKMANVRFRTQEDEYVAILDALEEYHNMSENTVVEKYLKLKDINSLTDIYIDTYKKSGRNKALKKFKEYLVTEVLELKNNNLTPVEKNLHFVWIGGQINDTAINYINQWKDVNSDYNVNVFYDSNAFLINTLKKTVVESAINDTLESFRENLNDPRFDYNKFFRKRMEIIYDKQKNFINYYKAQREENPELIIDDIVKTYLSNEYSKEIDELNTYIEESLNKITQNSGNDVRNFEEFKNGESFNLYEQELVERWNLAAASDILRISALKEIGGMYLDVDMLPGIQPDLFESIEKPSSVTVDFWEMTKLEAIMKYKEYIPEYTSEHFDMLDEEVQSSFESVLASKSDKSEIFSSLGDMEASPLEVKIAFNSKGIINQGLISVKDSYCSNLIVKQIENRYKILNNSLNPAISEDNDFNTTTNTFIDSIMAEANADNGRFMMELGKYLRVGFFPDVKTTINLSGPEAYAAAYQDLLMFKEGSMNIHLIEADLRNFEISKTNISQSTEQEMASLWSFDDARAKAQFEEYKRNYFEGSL

Question: `CC1(C)CN(C(=O)c2ccc(CN3C(=O)c4ccc(Cl)cc4NC(=O)[C@H]3Cc3ccccn3)cc2Cl)c2ncc(C(F)(F)F)cc21` [Example 5aw, (R)-8-chloro-4-(3-chloro-4-(3,3-dimethyl-5-(trifluoromethyl)-2,3-dihydro-1H-pyrrolo[2,3-b]pyridine-1-carbonyl)benzyl)-3-(pyridin-2-ylmethyl)-3,4-dihydro-1H-benzo[e][1,4]diazepine-2,5-dione] was tested. Which IC50 did it give?
Answer: The IC50 was < 100 nM.

Question: For `COc1cnc(NC(=O)[C@H]2CC[C@H](CN3C(=O)c4ccc(Cl)cc4NC(=O)[C@H]3Cc3ccccn3)CC2)nc1` [Example 5ax, (1R,4r)-4-(((R)-8-chloro-2,5-dioxo-3-(pyridin-2-ylmethyl)-2,3-dihydro-1H-benzo[e][1,4]diazepin-4(5H)-yl)methyl)-N-(5-methoxypyrimidin-2-yl)cyclohexanecarboxamide], which IC50 is on record?
Answer: The IC50 was < 100 nM.

Question: For `O=C(Nc1ncccn1)c1ccc(CN2C(=O)c3ccc(Cl)cc3NC(=O)[C@H]2Cc2cccnc2)cc1` [Example 5b, (R)-4-((8-chloro-2,5-dioxo-3-(pyridin-3-ylmethyl)-2,3-dihydro-1H-benzo[e][1,4]diazepin-4(5H)-yl)methyl)-N-(pyrimidin-2-yl)benzamide], which IC50 is on record?
Answer: The IC50 was < 100 nM.

Question: Which IC50 does the source give for `O=C(Nc1cnccn1)c1ccc(CN2C(=O)c3ccc(Cl)cc3NC(=O)[C@H]2Cc2cccnc2)cc1` [Example 5c, (R)-4-((8-chloro-2,5-dioxo-3-(pyridin-3-ylmethyl)-2,3-dihydro-1H-benzo[e][1,4]diazepin-4(5H)-yl)methyl)-N-(pyrazin-2-yl)benzamide] here?
Answer: The IC50 was < 100 nM.

Question: For `O=C(Nc1ccc(Cl)cn1)c1ccc(CN2C(=O)c3ccc(Cl)cc3NC(=O)[C@H]2Cc2cccnc2)cc1` [Example 5d, (R)-4-((8-chloro-2,5-dioxo-3-(pyridin-3-ylmethyl)-2,3-dihydro-1H-benzo[e][1,4]diazepin-4(5H)-yl)methyl)-N-(5-chloropyridin-2-yl)benzamide], which IC50 is on record?
Answer: Its IC50 is < 100 nM.

Question: With `O=C(Nc1ncccc1Cl)c1ccc(CN2C(=O)c3ccc(Cl)cc3NC(=O)[C@H]2Cc2cccnc2)cc1` [Example 5e, (R)-4-((8-chloro-2,5-dioxo-3-(pyridin-3-ylmethyl)-2,3-dihydro-1H-benzo[e][1,4]diazepin-4(5H)-yl)methyl)-N-(3-chloropyridin-2-yl)benzamide] as the compound, how does the IC50 read?
Answer: The IC50 was 100 to 999 nM.

Question: How did the IC50 turn out when `O=C(Nc1ccc(C(F)(F)F)cn1)c1ccc(CN2C(=O)c3ccc(Cl)cc3NC(=O)[C@H]2Cc2ccccn2)cc1-c1ccc2c(c1)OCO2` [Example 5f, (R)-2-(benzo[d][1,3]dioxol-5-yl)-4-((8-chloro-2,5-dioxo-3-(pyridin-2-ylmethyl)-2,3-dihydro-1H-benzo[e][1,4]diazepin-4(5H)-yl)methyl)-N-(5-(trifluoromethyl)pyridin-2-yl)benzamide] was run?
Answer: The IC50 was 100 to 999 nM.

Question: `COc1ccc(NC(=O)c2ccc(CN3C(=O)c4ccc(Cl)cc4NC(=O)[C@H]3Cc3cccnc3)cc2)nc1` [Example 5g, (R)-4-((8-chloro-2,5-dioxo-3-(pyridin-3-ylmethyl)-2,3-dihydro-1H-benzo[e][1,4]diazepin-4(5H)-yl)methyl)-N-(5-methoxypyridin-2-yl)benzamide] was tested. Which IC50 did it give?
Answer: The IC50 was < 100 nM.

Question: For `Cc1cnc(NC(=O)c2ccc(CN3C(=O)c4ccc(Cl)cc4NC(=O)[C@H]3Cc3cccnc3)cc2)nc1` [Example 5h, (R)-4-((8-chloro-2,5-dioxo-3-(pyridin-3-ylmethyl)-2,3-dihydro-1H-benzo[e][1,4]diazepin-4(5H)-yl)methyl)-N-(5-methylpyrimidin-2-yl)benzamide], which IC50 is on record?
Answer: Its IC50 is < 100 nM.

Question: With `Cc1ccnc(NC(=O)c2ccc(CN3C(=O)c4ccc(Cl)cc4NC(=O)[C@H]3Cc3cccnc3)cc2)n1` [Example 5i, (R)-4-((8-chloro-2,5-dioxo-3-(pyridin-3-ylmethyl)-2,3-dihydro-1H-benzo[e][1,4]diazepin-4(5H)-yl)methyl)-N-(4-methylpyrimidin-2-yl)benzamide] as the compound, how does the IC50 read?
Answer: Its IC50 is < 100 nM.

Question: Which IC50 does the source give for `COc1cc(NC(=O)c2ccc(CN3C(=O)c4ccc(Cl)cc4NC(=O)[C@H]3Cc3cccnc3)cc2)ncn1` [Example 5j] here?
Answer: The IC50 was < 100 nM.

Question: How did the IC50 turn out when `CCc1ccc(NC(=O)c2ccc(CN3C(=O)c4ccc(Cl)cc4NC(=O)[C@H]3Cc3cccnc3)cc2)nc1` [Example 5k, (R)-4-((8-chloro-2,5-dioxo-3-(pyridin-3-ylmethyl)-2,3-dihydro-1H-benzo[e][1,4]diazepin-4(5H)-yl)methyl)-N-(5-ethylpyridin-2-yl)benzamide] was run?
Answer: The IC50 was < 100 nM.

Question: How did the IC50 turn out when `Cc1cnc(NC(=O)c2ccc(CN3C(=O)c4ccc(Cl)cc4NC(=O)[C@H]3Cc3ccccn3)cc2)nc1` [Example 5l, (R)-4-((8-chloro-2,5-dioxo-3-(pyridin-2-ylmethyl)-2,3-dihydro-1H-benzo[e][1,4]diazepin-4(5H)-yl)methyl)-N-(5-methylpyrimidin-2-yl)benzamide] was run?
Answer: Its IC50 is < 100 nM.

Question: For `COc1cnc(NC(=O)c2ccc(CN3C(=O)c4ccc(Cl)cc4NC(=O)[C@H]3Cc3cccnc3)cc2)nc1` [Example 5m, (R)-4-((8-chloro-2,5-dioxo-3-(pyridin-3-ylmethyl)-2,3-dihydro-1H-benzo[e][1,4]diazepin-4(5H)-yl)methyl)-N-(5-methoxypyrimidin-2-yl)benzamide], which IC50 is on record?
Answer: The IC50 was < 100 nM.

Question: Which IC50 does the source give for `C[C@@H]1C(=O)Nc2cc(Cl)ccc2C(=O)N1Cc1ccc(C(=O)Nc2ncc3ccccc3n2)cc1` [Example 5n, (R)-4-((8-chloro-3-methyl-2,5-dioxo-2,3-dihydro-1H-benzo[e][1,4]diazepin-4(5H)-yl)methyl)-N-(quinazolin-2-yl)benzamide] here?
Answer: The IC50 was 100 to 999 nM.

Question: `Cc1cncc(NC(=O)c2ccc(CN3C(=O)c4ccc(Cl)cc4NC(=O)[C@H]3C)cc2)n1` [Example 5o, (R)-4-((8-chloro-3-methyl-2,5-dioxo-2,3-dihydro-1H-benzo[e][1,4]diazepin-4(5H)-yl)methyl)-N-(6-methylpyrazin-2-yl)benzamide] was tested. Which IC50 did it give?
Answer: The IC50 was 100 to 999 nM.

Question: `C[C@@H]1C(=O)Nc2cc(Cl)ccc2C(=O)N1Cc1ccc(C(=O)Nc2nc3ccccc3[nH]2)cc1` [Example 5p, (R)-N-(1H-benzo[d]imidazol-2-yl)-4-((8-chloro-3-methyl-2,5-dioxo-2,3-dihydro-1H-benzo[e][1,4]diazepin-4(5H)-yl)methyl)benzamide] was tested. Which IC50 did it give?
Answer: Its IC50 is 1000 to 10000 nM.

Question: How did the IC50 turn out when `O=C(Nc1ccc(C(F)(F)F)cn1)c1ccc(CN2C(=O)c3ccc(Cl)cc3NC(=O)[C@H]2Cc2ccccn2)cc1` [Example 5q, (R)-4-((8-chloro-2,5-dioxo-3-(pyridin-2-ylmethyl)-2,3-dihydro-1H-benzo[e][1,4]diazepin-4(5H)-yl)methyl)-N-(5-(trifluoromethyl)pyridin-2-yl)benzamide] was run?
Answer: The IC50 was < 100 nM.

Question: With `COc1cnc(NC(=O)c2ccc(CN3C(=O)c4ccc(Cl)cc4NC(=O)[C@H]3Cc3ccccn3)s2)nc1` [Example 5r, (R)-5-((8-chloro-2,5-dioxo-3-(pyridin-2-ylmethyl)-2,3-dihydro-1H-benzo[e][1,4]diazepin-4(5H)-yl)methyl)-N-(5-methoxypyrimidin-2-yl)thiophene-2-carboxamide] as the compound, how does the IC50 read?
Answer: The IC50 was 100 to 999 nM.

Question: `Cc1cnc(NC(=O)c2ccc(CN3C(=O)c4ccc(Cl)cc4NC(=O)[C@H]3Cc3ccccn3)s2)nc1` [Example 5s, (R)-5-((8-chloro-2,5-dioxo-3-(pyridin-2-ylmethyl)-2,3-dihydro-1H-benzo[e][1,4]diazepin-4(5H)-yl)methyl)-N-(5-methylpyrimidin-2-yl)thiophene-2-carboxamide] was tested. Which IC50 did it give?
Answer: The IC50 was 100 to 999 nM.

Question: How did the IC50 turn out when `Cc1cnc(NC(=O)c2ccc(CN3C(=O)c4ccc(Cl)cc4NC(=O)[C@H]3Cc3ccccn3)cc2)cn1` [Example 5t, (R)-4-((8-chloro-2,5-dioxo-3-(pyridin-2-ylmethyl)-2,3-dihydro-1H-benzo[e][1,4]diazepin-4(5H)-yl)methyl)-N-(5-methylpyrazin-2-yl)benzamide] was run?
Answer: The IC50 was < 100 nM.

Question: Which IC50 does the source give for `O=C(Nc1cnccn1)c1ccc(CN2C(=O)c3ccc(Cl)cc3NC(=O)[C@H]2Cc2ccccn2)cc1` [Example 5u, (R)-4-((8-chloro-2,5-dioxo-3-(pyridin-2-ylmethyl)-2,3-dihydro-1H-benzo[e][1,4]diazepin-4(5H)-yl)methyl)-N-(pyrazin-2-yl)benzamide] here?
Answer: Its IC50 is < 100 nM.

Question: `COc1cnc(NC(=O)c2ccc(CN3C(=O)c4ccc(Cl)cc4NC(=O)[C@H]3Cc3ccccn3)cc2)cn1` [Example 5v, (R)-4-((8-chloro-2,5-dioxo-3-(pyridin-2-ylmethyl)-2,3-dihydro-1H-benzo[e][1,4]diazepin-4(5H)-yl)methyl)-N-(5-methoxypyrazin-2-yl)benzamide] was tested. Which IC50 did it give?
Answer: The IC50 was < 100 nM.

Question: How did the IC50 turn out when `COc1ccc(NC(=O)c2ccc(CN3C(=O)c4ccc(Cl)cc4NC(=O)C3Cc3cnccn3)cc2)nc1` (stereo not shown) [Example 5w, 4-((8-chloro-2,5-dioxo-3-(pyrazin-2-ylmethyl)-2,3-dihydro-1H-benzo[e][1,4]diazepin-4(5H)-yl)methyl)-N-(5-methoxypyridin-2-yl)benzamide] was run?
Answer: Its IC50 is < 100 nM.

Question: With `Cc1ccc(NC(=O)c2ccc(CN3C(=O)c4ccc(Cl)cc4NC(=O)C3Cc3cnccn3)cc2)nc1` (stereo not shown) [Example 5x, 4-((8-chloro-2,5-dioxo-3-(pyrazin-2-ylmethyl)-2,3-dihydro-1H-benzo[e][1,4]diazepin-4(5H)-yl)methyl)-N-(5-methylpyridin-2-yl)benzamide] as the compound, how does the IC50 read?
Answer: The IC50 was < 100 nM.

Question: With `COc1cnc(NC(=O)c2ccc(CN3C(=O)c4ccc(Cl)cc4NC(=O)[C@H]3Cc3cnccn3)cc2)nc1` [Example 5y, 4-((8-chloro-2,5-dioxo-3-(pyrazin-2-ylmethyl)-2,3-dihydro-1H-benzo[e][1,4]diazepin-4(5H)-yl)methyl)-N-(5-methoxypyrimidin-2-yl)benzamide] as the compound, how does the IC50 read?
Answer: Its IC50 is < 100 nM.

Question: Which IC50 does the source give for `Cc1cnc(NC(=O)c2ccc(CN3C(=O)c4ccc(Cl)cc4NC(=O)[C@H]3Cc3cnccn3)cc2)nc1` [Example 5z, 4-((8-chloro-2,5-dioxo-3-(pyrazin-2-ylmethyl)-2,3-dihydro-1H-benzo[e][1,4]diazepin-4(5H)-yl)methyl)-N-(5-methylpyrimidin-2-yl)benzamide] here?
Answer: The IC50 was < 100 nM.

Question: For `O=C(Nc1ccccn1)c1ccc(CN2C(=O)c3ccc(Cl)cc3NC(=O)[C@H]2Cc2ccccn2)cc1F` [Example 6b, (R)-4-((8-chloro-2,5-dioxo-3-(pyridin-2-ylmethyl)-2,3-dihydro-1H-benzo[e][1,4]diazepin-4(5H)-yl)methyl)-2-fluoro-N-(pyridin-2-yl)benzamide], which IC50 is on record?
Answer: The IC50 was < 100 nM.
